# Reference: ChEMBL document CHEMBL1122038, “Peptide sweeteners. 5. Side-chain homologues relating zwitterionic and trifluoroacetylated amino acid anilide and dipeptide sweeteners” (J Med Chem, 1982)
# Counter-ions that a name gives are not always drawn. Peptide text beside a SMILES is read from it. * marks the point of attachment. Tfa = O=C(C(F)(F)F)*
# Columns and labels:
# [1] = Compound was evaluated for the potency of sweet taste when sweetness of sucrose is taken as 1 on a weight basis; Not sweet; type: functional
# [2] = Compound was evaluated for the potency of sweet taste when sweetness of sucrose is taken as 1 on a weight basis; 2500-3000
# [3] = Compound was evaluated for the potency of sweet taste when sweetness of sucrose is taken as 1 on a weight basis; 150-200
# [4] = Compound was evaluated for the potency of sweet taste when sweetness of sucrose is taken as 1 on a weight basis; 15-30
Compound,Taste [1],also measured
COC(=O)C(Cc1ccccc1)NC(=O)C(CCC(=O)O)NC(=O)C(F)(F)F (centres undefined),0,–
N#Cc1ccc(NC(=O)C(CCCC(=O)O)NC(=O)C(F)(F)F)cc1 (centres undefined),0,–
N#Cc1ccc(NC(=O)CCC(NC(=O)C(F)(F)F)C(=O)O)cc1 (stereo in doubt; 11),0,–
N#Cc1ccc(NC(=O)C(N)C(=O)O)cc1 (centres undefined),0,–
N#Cc1ccc(NC(=O)[C@H](CC(=O)O)NC(=O)C(F)(F)F)cc1,–,Taste [2]: 2500
COC(=O)[C@H](Cc1ccccc1)NC(=O)[C@@H](N)CC(=O)O,–,Taste [3]: 150
N#Cc1ccc(NC(=O)C(N)CCC(=O)O)cc1 (centres undefined),–,Taste [4]: 15
N#Cc1ccc(NC(=O)C(N)CC(=O)O)cc1 (centres undefined),–,Taste [4]: 15
N#Cc1ccc(NC(=O)C(CC(=O)O)NC(=O)C(F)(F)F)cc1 (centres undefined),0,–
COC(=O)[C@H](Cc1ccccc1)NC(=O)C(N)C(=O)O (some centres undefined),–,Taste [3]: 150
N#Cc1ccc(NC(=O)CC(NC(=O)C(F)(F)F)C(=O)O)cc1 (centres undefined),0,–
N#Cc1ccc(NC(=O)C(NC(=O)C(F)(F)F)C(=O)O)cc1 (centres undefined),0,–
COC(=O)[C@H](Cc1ccccc1)NC(=O)[C@@H](N)CCC(=O)O,0,–
N#Cc1ccc(NC(=O)C[C@@H](NC(=O)C(F)(F)F)C(=O)O)cc1,0,–
COC(=O)C(Cc1ccccc1)NC(=O)C(CC(=O)O)NC(=O)C(F)(F)F (stereo not drawn) (Tfa-Asp-Phe-OMe; configuration not given here),–,Taste [3]: 150
N#Cc1ccc(NC(=O)C(CCC(=O)O)NC(=O)C(F)(F)F)cc1 (centres undefined),0,Taste [2]: 2500
COC(=O)C(Cc1ccccc1)NC(=O)C(NC(=O)C(F)(F)F)C(=O)O (centres undefined),0,–
N#Cc1ccc(NC(=O)CCC(NC(=O)C(F)(F)F)C(=O)O)cc1 (stereo in doubt; 9),0,–
